In ChEMBL document CHEMBL1201862, “PubChem BioAssay data set” (2004):
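Five compound concentrations were applied to cells in 96-well plates for 48 hours; endpoints were derived by simple linear interpolation of the resulting dose-response curve. Here, GI50 denotes the concentration required for 50% inhibition of growth.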 The source made the active and inactive calls. No stated cut-off is given here; in the data, active = GI50 up to about 1.1 µM and inactive = higher.

What was measured:
Experiment in all cases: inhibition of tumour cell growth, NCI panel, 48 h
HL-60 = system: HL-60
SF-295 = system: SF-295
NCI-H522 = system: NCI-H522
HOP-92 = system: HOP-92
NCI/ADR-RES = system: NCI/ADR-RES
COLO 205 = system: COLO 205
SW-620 = system: SW-620
U-251 = system: U-251
TK-10 = system: TK-10
KM12 = system: KM12
NCI-H226 = system: NCI-H226
HCT-15 = system: HCT-15
PC-3 = system: PC-3
OVCAR-8 = system: OVCAR-8
HOP-62 = system: HOP-62
SNB-75 = system: SNB-75
M14 = system: M14
SK-MEL-28 = system: SK-MEL-28
SN12C = system: SN12C
MDA-MB-231 = system: MDA-MB-231
MDA-MB-435 = system: MDA-MB-435
LOX IMVI = system: LOX IMVI
SR = system: SR
UO-31 = system: UO-31
HT-29 = system: HT-29
OVCAR-5 = system: OVCAR-5
CCRF-CEM = system: CCRF-CEM
MCF7 = system: MCF7
NCI-H23 = system: NCI-H23
NCI-H460 = system: NCI-H460
MDA-N = system: MDA-N
BT-549 = system: BT-549
DU-145 = system: DU-145
RPMI-8226 = system: RPMI-8226
ACHN = system: ACHN
OVCAR-4 = system: OVCAR-4
UACC-62 = system: UACC-62
MOLT-4 = system: MOLT-4
Malme-3M = system: Malme-3M
SK-OV-3 = system: SK-OV-3
T47D = system: T47D
SK-MEL-5 = system: SK-MEL-5
RXF 393 = system: RXF 393
OVCAR-3 = system: OVCAR-3
SK-MEL-2 = system: SK-MEL-2
CAKI-1 = system: CAKI-1
SNB-19 = system: SNB-19
HCT-116 = system: HCT-116
IGROV-1 = system: IGROV-1
Hs-578T = system: Hs-578T
A549 = system: A549
SF-539 = system: SF-539
SF-268 = system: SF-268
EKVX = system: EKVX
HCC 2998 = system: HCC 2998
786-0 = system: 786-0
UACC-257 = system: UACC-257
K562 = system: K562
A498 = system: A498

`COC(=O)c1ccc(C)cc1C1CN=NC12Cc1cccc(C)c1C2=O` (stereo unspecified) was tested, and the GI50 (HL-60) was 20.2 µM (inactive), the GI50 (SF-295) was 50 µM (inactive) and the GI50 (NCI-H522) was 28.1 µM (inactive). For the same compound, the GI50 (HOP-92) was 36.9 µM (inactive), the GI50 (NCI/ADR-RES) was 25.4 µM (inactive) and the GI50 (COLO 205) was 30.5 µM (inactive). The GI50 (SW-620) was 57.7 µM (inactive), the GI50 (U-251) was 79.1 µM (inactive) and the GI50 (TK-10) was > 100 µM (inactive). For the same compound, the GI50 (KM12) was 26.7 µM (inactive), the GI50 (NCI-H226) was 25.1 µM (inactive) and the GI50 (HCT-15) was 47.2 µM. For the same compound, the GI50 (PC-3) was 22.5 µM (inactive), the GI50 (OVCAR-8) was 21.1 µM (inactive) and the GI50 (HOP-62) was 71.3 µM (inactive). The GI50 (SNB-75) was 34.2 µM (inactive), the GI50 (M14) was 19.6 µM (inactive) and the GI50 (SK-MEL-28) was 30.7 µM (inactive). For the same compound, the GI50 (SN12C) was 52.7 µM (inactive), the GI50 (MDA-MB-231) was > 100 µM (inactive) and the GI50 (MDA-MB-435) was 18.9 µM (inactive). The GI50 (LOX IMVI) was 28.6 µM (inactive), the GI50 (SR) was 82.8 µM (inactive) and the GI50 (UO-31) was 26.7 µM (inactive). For the same compound, the GI50 (HT-29) was 71.6 µM (inactive), the GI50 (OVCAR-5) was > 100 µM (inactive) and the GI50 (CCRF-CEM) was 31.6 µM (inactive). The GI50 (MCF7) was 91.2 µM (inactive), the GI50 (NCI-H23) was 64.9 µM (inactive) and the GI50 (NCI-H460) was 63 µM (inactive). The GI50 (MDA-N) was 26.2 µM (inactive), the GI50 (BT-549) was 25.6 µM (inactive) and the GI50 (DU-145) was 65.2 µM (inactive). For the same compound, the GI50 (RPMI-8226) was 20.8 µM (inactive), the GI50 (ACHN) was 38.3 µM (inactive) and the GI50 (OVCAR-4) was 26.5 µM (inactive). The GI50 (UACC-62) was 21 µM (inactive), the GI50 (MOLT-4) was 19.6 µM (inactive) and the GI50 (Malme-3M) was 27.8 µM (inactive). For the same compound, the GI50 (SK-OV-3) was 90.4 µM (inactive), the GI50 (T47D) was 24.9 µM (inactive) and the GI50 (SK-MEL-5) was 22.2 µM (inactive). The GI50 (RXF 393) was > 100 µM (inactive), the GI50 (OVCAR-3) was 32.8 µM (inactive) and the GI50 (SK-MEL-2) was 23.8 µM (inactive). The GI50 (CAKI-1) was 67.6 µM (inactive), the GI50 (SNB-19) was > 100 µM (inactive) and the GI50 (HCT-116) was 42.3 µM (inactive). For the same compound, the GI50 (IGROV-1) was 53.1 µM (inactive), the GI50 (Hs-578T) was 38.3 µM (inactive) and the GI50 (A549) was 41.1 µM (inactive). The GI50 (SF-539) was 90.4 µM (inactive), the GI50 (SF-268) was 57.1 µM (inactive) and the GI50 (EKVX) was 27.6 µM (inactive). For the same compound, the GI50 (HCC 2998) was 42.2 µM (inactive), the GI50 (786-0) was > 100 µM (inactive) and the GI50 (UACC-257) was 29.7 µM (inactive). For the same compound, the GI50 (K562) was 26.7 µM (inactive).

In the case of `COc1ccc(-c2c(C#N)c(N)nc(Sc3ccccc3N)c2C#N)cc1`, the GI50 (HL-60) is reported as > 100 µM (inactive), the GI50 (SF-295) is reported as 10.2 µM (inactive) and the GI50 (NCI-H522) is reported as 10 µM (inactive). The GI50 (HOP-92) was 4.79 µM (inactive), the GI50 (NCI/ADR-RES) was 7.69 µM (inactive) and the GI50 (COLO 205) was > 100 µM (inactive). For the same compound, the GI50 (SW-620) was > 90.6 µM (inactive), the GI50 (U-251) was 13.4 µM (inactive) and the GI50 (TK-10) was 10.9 µM (inactive). For the same compound, the GI50 (KM12) was 44.9 µM (inactive), the GI50 (NCI-H226) was 52.8 µM (inactive) and the GI50 (HCT-15) was 24 µM. For the same compound, the GI50 (PC-3) was 12.9 µM (inactive), the GI50 (OVCAR-8) was 8.11 µM (inactive) and the GI50 (HOP-62) was 6.1 µM (inactive). For the same compound, the GI50 (A498) was 4.73 µM (inactive), the GI50 (M14) was 27.9 µM (inactive) and the GI50 (SK-MEL-28) was > 50.9 µM (inactive). For the same compound, the GI50 (SN12C) was 9.66 µM (inactive), the GI50 (MDA-MB-231) was 11.7 µM (inactive) and the GI50 (MDA-MB-435) was > 83 µM (inactive). The GI50 (LOX IMVI) was 16.8 µM (inactive), the GI50 (SR) was 43.7 µM (inactive) and the GI50 (UO-31) was 13.3 µM (inactive). The GI50 (HT-29) was 7.69 µM (inactive), the GI50 (OVCAR-5) was > 53.5 µM (inactive) and the GI50 (CCRF-CEM) was > 100 µM (inactive). The GI50 (MCF7) was 14.6 µM (inactive), the GI50 (NCI-H23) was > 48.4 µM (inactive) and the GI50 (NCI-H460) was 19 µM (inactive). The GI50 (MDA-N) was > 100 µM (inactive), the GI50 (BT-549) was 9.35 µM (inactive) and the GI50 (DU-145) was > 47.6 µM (inactive). The GI50 (RPMI-8226) was > 75.5 µM (inactive), the GI50 (ACHN) was 13.1 µM (inactive) and the GI50 (OVCAR-4) was 13.6 µM (inactive). For the same compound, the GI50 (UACC-62) was 9.46 µM (inactive), the GI50 (MOLT-4) was > 71 µM (inactive) and the GI50 (Malme-3M) was 10.2 µM (inactive). For the same compound, the GI50 (SK-OV-3) was 9.53 µM (inactive), the GI50 (T47D) was 2.82 µM (inactive) and the GI50 (SK-MEL-5) was 28.6 µM (inactive). For the same compound, the GI50 (RXF 393) was 6.46 µM (inactive), the GI50 (OVCAR-3) was 22.1 µM (inactive) and the GI50 (SK-MEL-2) was 9.57 µM (inactive). The GI50 (CAKI-1) was 8.36 µM (inactive), the GI50 (SNB-19) was 16.1 µM (inactive) and the GI50 (HCT-116) was 10.7 µM (inactive). The GI50 (IGROV-1) was 10.8 µM (inactive), the GI50 (Hs-578T) was 6.05 µM (inactive) and the GI50 (A549) was 17.6 µM (inactive). The GI50 (SF-539) was 12.1 µM (inactive), the GI50 (SF-268) was 5.77 µM (inactive) and the GI50 (EKVX) was 15.7 µM (inactive). For the same compound, the GI50 (HCC 2998) was > 43.1 µM (inactive), the GI50 (786-0) was 4.82 µM (inactive) and the GI50 (UACC-257) was 39.3 µM (inactive). The GI50 (K562) was 32.3 µM (inactive).
